Reference: patent US11913884B2, “Visible light-activated dyes and methods of use thereof” (William Marsh Rice University, priority 2019, dated 2024)
Several values for one entry are separate records, joined by “and”; a condition that tells them apart may be missing. Equal entries are not always repeated.

How the values were obtained:
[1] = Photoactivation (turn-on) of thio-caged fluorophores in solution by light irradiation; format: physicochemical
Excerpt: To determine whether a minimal one atom sulfur-for-oxygen substitution within fluorophores can lead to fluorescence quenching, thio-caged Nile Red (SNile Red, FIG. 1) was synthesized, in which a carbonyl group was replaced with a thiocarbonyl moiety. Treatment of Nile Red with Lawesson's reagent in refluxing benzene produced the desired SNile Red in a yield of 40%. […] Irradiation of SNile Red with red light (615 nm, 0.4 μW cm-2) led to the regeneration of fluorescent Nile Red in a high yield (FIG. 2A). The absorption maxima of SNile Red at 298, 368 and 652 nm were blue-shifted after desulfuration to 315 and 556 nm, in a good agreement with the absorption spectrum of authentic synthesized Nile Red (FIG. 2B). The A556/A652 value, representing the ratio of the absorbance maxima of Nile Red and SNile Red, increased from 0.25 to 30 after desulfuration reaction (FIG. 2B). Upon irradiation with red light, the fluorescence intensity of the desulfurated material at 626 nm increased 280-fold, accompanied by a change in fluorescence from dark to red (FIG. 2C). To evaluate the proper light source for SNile Red photoactivation, SNile Red was irradiated with either 470 nm, 615 nm, or 850 nm light for different times and fluorescence intensities at 626 nm were recorded. […] To further characterize the photoactivated product of SNile Red, ^1H NMR and ESI-MS spectral changes were measured in the process of photoactivation (FIG. 2A). […] Signals corresponding to phenyl moiety protons at 8.64, 8.62, 7.85, 7.73, 7.36, 7.04, and 6.79 ppm gradually disappeared, and were replaced by new signals appearing at 8.57, 8.13, 7.81, 7.72, 7.63, 6.85, 6.69 and 6.30 ppm, respectively. […] The photoactivated product was also characterized by ESI-mass spectrometric analysis FIG. 3). The observed m/z 319.2 corresponding to Nile Red confirms the photoactivation product of SNile Red is its oxo form. Both dialkylthioketones and diarylthioketones are known to undergo photo-oxidation reaction under oxygen and light to give the corresponding ketones (Coyle, 1985, Corsaro and Pistara, 1998). To investigate the effects of dissolved oxygen and light on the photoactivation of thio-caged fluorophores, the time profile of the fluorescence of SNile Red was measured in the presence or absence of light, or oxygen. […] To study the effect of oxygen during the photoactivation, the inventors prepared an oxygen-free SNile Red solution by bubbling nitrogen gas and irradiated at 615 nm. […] Inspired by the photoactivation mechanism of thioketones, it was hypothesized that singlet oxygen generated by self-sensitization can be the active species to oxidize thiocarbonyl groups within fluorophores (Coyle, 1985 and Corsaro and Pistara, 1998). […] The singlet oxygen quantum yield (DA) was further determined to be 0.36 with considering the absorption correction factor over the 600-630 nm region (Bonacin et al., 2009 and Adarsh et al., 2010) by referring to methylene blue (MB) (ΦΔ,MB=0.57 in dichloromethane; Li et al., 2013).
Encouraged by the excellent photoactivation properties of SNile Red, Lawesson's reagent was employed to introduce thiocarbonyl moieties into several different fluorophores, such as phthalimide (PI), coumarin (Cou) and acridone (ACD), obtaining yields ranging from 20-80% (FIG. 1). Next, characterization of the spectroscopic and photochemical properties of these thiocaged fluorophores and their oxidized products using UV-vis and fluorescence spectroscopies was performed (Table 1). […] Double thiocarbonyl substitution on 4-dimethylaminophthalimide (4-DMAP, FIG. 1) produced an even larger bathochromic shift of 166 nm. […] It was hypothesized that the red-shift and enhanced absorption seen with thiocarbonyl compounds were due to the reduced energy gap between the HOMO-LUMO in these fluorophores. This is consistent with the computational results discussed below. […]

[2] = UV-vis absorption and fluorescence spectra of thio-caged and uncaged fluorophores; format: physicochemical; conditions: DMSO (50 μM)
Method: Encouraged by the excellent photoactivation properties of SNile Red, Lawesson's reagent was employed to introduce thiocarbonyl moieties into several different fluorophores, such as phthalimide (PI), coumarin (Cou) and acridone (ACD), obtaining yields ranging from 20-80% (FIG. 1). Next, characterization of the spectroscopic and photochemical properties of these thiocaged fluorophores and their oxidized products using UV-vis and fluorescence spectroscopies was performed (Table 1). […] Double thiocarbonyl substitution on 4-dimethylaminophthalimide (4-DMAP, FIG. 1) produced an even larger bathochromic shift of 166 nm. […] It was hypothesized that the red-shift and enhanced absorption seen with thiocarbonyl compounds were due to the reduced energy gap between the HOMO-LUMO in these fluorophores. This is consistent with the computational results discussed below. […] To assess the efficiency of photoactivation for the various thio-caged fluorophores, UV-vis and fluorescence spectra were recorded after different irradiation times (FIGS. 4-8).
The ^1H NMR spectroscopic measurements were carried out using a Bruker-600 NMR at 600 MHz with tetramethysilane (TMS) as internal reference. Electrospray ionization (ESI) mass spectra were performed on a Bruker MicroToF ESI LC-MS System in positive-ion mode. The steady-state absorption spectra were obtained with a ThermoFisher Evolution 220 UV-Vis spectrophotometer in 1 cm path length quartz cells. Fluorescence spectra were recorded using spectrophotometer (SPEX FluoroLog-3). Quantum yield in DMSO was measured relative to the fluorescence of Rhodamine B (Φ=0.65) in ethanol or quinine sulfate (Φ=0.55) in 0.5 M·L^−1 H2SO4. FT-IR spectrum was taken on a PerkinElmer Spectrum 100 FT-IR Spectrometers. Confocal fluorescent images of living cells were performed using Nikon A1R-si Laser Scanning Confocal Microscope (Japan), equipped with lasers of 405/488/561/638 nm. STORM images were performed on a NSTORM (Nikon, Japan), featuring a CFI Apo TIRF 100× oil objective (NA 1.49) on an inverted Nikon Ti Eclipse microscope with a quad cube filter (Chroma, zt405/488/561/640 m-TRF), piezo stage, and Perfect Focus System (Nikon) for Z-stability. Light source are hand-held UV lamp, BlueView Transilluminator (470 nm centred, Vernier), Prior Lumen200 with 615/30 filter and 850 LED (Mouser Electronics).

CCN(CC)c1ccc2nc3c4ccccc4c(=S)cc-3oc2c1 [SNile Red]
fluorescence change at 626 nm with light of shorter wavelengths than 652 nm ([1]; 470 nm or 615 nm light): significant fluorescence enhancement | increase of fluorescence intensity at 626 nm ([1]; 615 nm light in air for 20 mins): 90 fold | activation by light out of the absorbance range ([1]; 850 nm, after 5 hrs): negligible activation | Turn-on (x-fold) ([1]; DMSO, footnote e: 470 nm, 0.4 μW cm^−2): 280^e x-fold | A556/A652 value ([1]; after desulfuration reaction): 30 | absorption maxima after desulfuration ([1]; after irradiation with red light (615 nm, 0.4 μW cm-2)): 315 nm and 556 nm | A556/A652 value ([1]; before desulfuration reaction): 0.25 | change of fluorescent spectrum ([1]; in the absence of light): no change | change of fluorescence intensity ([1]; oxygen-free solution (nitrogen bubbled), 615 nm, within 20 mins irradiation): no significant change | increase of fluorescence intensity at 626 nm (activation ratio) ([1]; upon irradiation with red light): 280 fold | λem [2]: 616 nm
